The target of the assay is T1, SLC25A1 (mitochondrial citrate carrier) (Homo sapiens, UniProt P53007).
T1 construct: Histidine-tagged recombinant purified SLC25A1
Nature of the assay: SPR (Biacore […], NTA chip, […] steady-state fit). Format: binding. On the technique in general: Surface plasmon resonance follows binding to a sensor surface in real time, without labels.

As usually defined, the Kd is the constant that tells how readily two partners part at equilibrium.

T1 sequence (P53007 14-311): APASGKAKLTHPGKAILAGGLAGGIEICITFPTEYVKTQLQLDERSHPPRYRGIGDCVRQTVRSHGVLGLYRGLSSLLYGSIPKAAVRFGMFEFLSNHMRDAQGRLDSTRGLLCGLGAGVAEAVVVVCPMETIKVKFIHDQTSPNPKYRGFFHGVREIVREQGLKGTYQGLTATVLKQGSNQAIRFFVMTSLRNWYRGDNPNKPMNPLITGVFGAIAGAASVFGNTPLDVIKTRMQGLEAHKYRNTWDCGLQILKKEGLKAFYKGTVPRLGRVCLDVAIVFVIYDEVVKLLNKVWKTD

`O=C(O)c1ccc(Cl)c(S(=O)(=O)Nc2cccc([N+](=O)[O-])c2)c1` [CTPI-1] came in with a Kd of 63.6 µM. In other words, the double-digit micromolar range.

Turning to `O=C(O)c1ccccc1NS(=O)(=O)c1ccc(Cl)c([N+](=O)[O-])c1` [CTPI-2], the affinity, expressed as Kd, was 3.5 µM.
